{
  "source": "patent US8207136B2",
  "about": "“Nucleoside compounds and methods of use thereof” (The Board of Trustees of the University of Illinois, priority 2005, dated 2012)",
  "key": {"[1]": {"tested_on": "RNA polymerase II transcription", "experiment": "Nuclear run-on assay, nuclei from treated HCT-116 cells", "format": "cell-based, human", "settings": "HCT-116 cells treated 2 hours with 1 mM", "description": "(§1) Run-on assays with isolated nuclei were performed as described. Briefly, cells treated with the indicated agents were lysed with hypotonic buffer (10 mM Tris-HCl pH 7.4, 10 mM NaCl and 35 mM MgCl2) and nuclei collected by centrifugation and resuspended in nuclear storage buffer (50 mM HEPES pH 8.0, 5 mM MgCl2, 0.5 mM DTT, 1 mg/ml BSA and 25% (v/v) glycerol) at about 5×10^8 nuclei/ml and stored at −80° C. Transcription reactions were performed in 200 μl volume consisting of 1×10^7 nuclei in the presence of 0.12 M KCl, 7 mM Mg(Ac)2, 25 μCi of [^32P]GTP, 500 μM ATP, UTP and CTP at 30° C. Samples were collected at various time points (18 μl/time point—0, 5, 10, 20 and 30 min) and the reaction terminated by the addition of 57 μl of Sarkosyl solution (1% Sarkosyl, 0.1 M Tris pH 8.0, 0.1 M NaCl, 10 mM EDTA and 200 μg/ml tRNA). The stopped reactions were transferred to Whatman DE81 paper, and washed four times with wash buffer (5% K2HPO4 and 0.3% Na4P2O7) for 10 min, followed by a 5-min water wash. Then the paper was briefly rinsed with 95% ethanol and allowed to dry completely. Radiation was quantitated using a liquid scintillation counter.\nSome transcriptional inhibitors such as DRB and flavopiridol repress p21 and hdm2 while increasing p53 levels. […] To evaluate this activity, HCT-116 cells were treated with one of DMSO (control), ARC or DRB, and nuclei were isolated. These nuclei were assayed for rate of transcription either in the presence or absence of α-amanitin using the nuclear run-on assay. […] If ARC inhibits polymerase I and III transcription, the rate of transcription should be substantially lower in the ARC+α-amanitin (FIG. 2A; curve 5) when compared with DMSO+α-amanitin (FIG. 2A; curve 4). However both of these rates of transcription were similar, implying that ARC might preferentially affect only RNA polymerase II transcription."}, "RNA polymerase II": {"target": "T1, RNA polymerase II (Homo sapiens, UniProt P24928)", "T1 construct": "nuclei were isolated from normally growing untreated HCT-116 cells and treated with each of these agents; endogenous in cells; host or cells: nuclei of HCT-116 colon cancer cells", "experiment": "Nuclear run-on assay, nuclei isolated from untreated HCT-116 cells then treated", "format": "biochemical", "settings": "50 μM ARC, 50 μM DRB or 2 μg/ml α-amanitin", "description": "as §1\nIn order to evaluate the ability of ARC to bind to and inhibit RNA polymerase II directly (like α-amanitin) or indirectly (like DRB), nuclei were isolated from normally growing untreated HCT-116 cells and treated with each of these agents, and then assayed for rate of transcription by nuclear run-on assay."}, "[2]": {"tested_on": "LIM1215 colon cancer cells", "experiment": "Apoptosis by PI staining and flow cytometry in LIM1215 cells", "format": "cell-based, human", "settings": "50 μM, 48 hours", "description": "For Flow Cytometry, cells were fixed in 70% ethanol and stored at −20° C. until further analysis. Equal numbers of fixed cells were then stained with PI solution (0.1% Triton X-100, 0.2 mg/ml DNase free RNase, 0.02 mg/ml propidium iodide) made in PBS for 15 min at 37° C. and analyzed by a flow cytometer.\nIn order to evaluate the extent to which ARC induces apoptosis relative to that of the other known nucleoside analog DRB, LIM1215 colon cancer cells were treated with either ARC or DRB for 48 hours."}, "HUVECs [3]": {"tested_on": "HUVECs", "settings": "literature value [28]; read-out: IC50, cord formation; cited from earlier work"}, "HUVECs [4]": {"tested_on": "HUVECs", "settings": "literature value [28]; read-out: IC50, cell motility; cited from earlier work"}, "p53": {"tested_on": "p53", "experiment": "Gel shift assay with nuclear extracts and p53 consensus probe", "format": "cell-based, human", "settings": "MCF-7 nuclear extracts", "description": "Either purified p53 protein or nuclear extracts were used in the gel shift assays. For preparation of nuclear extracts, cells treated either with DMSO or different agents (doxorubicin, ARC and actinomycin D) were harvested 24 hours later and lysed in hypotonic buffer (10 mM HEPES pH 7.9, 1.5 mM MgCl2, 10 mM KCl, 0.2 mM PMSF, 0.5 mM DTT, 1 mM Na3VO4, 1 mM NaF, 1 mM Aprotinin and 1 mM Leupeptin), nuclei pelleted and treated with high-salt buffer (20 mM HEPES pH 7.9, 20% (v/v) glycerol, 1.5 mM MgCl2, 0.5 M KCl, 0.2 mM EDTA, 0.2 mM PMSF, 0.5 mM DTT, 1 mM Na3VO4, 1 mM NaF, 1 mM Aprotinin and 1 mM Leupeptin). Nuclear extracts (10 μg) or purified p53 protein (100 ng) were incubated with 0.5 ng of p53 consensus double-stranded oligos (5′-TACAGAACATGTCTAAGCATGCTGGGGACT-3′; Santa Cruz Biotechnology) that were labeled with [γ^32P]ATP. As a control, anti-p53 antibody (PAb421, EMD Biosciences) was used to supershift the p53/DNA complex. The reaction mixtures were resolved on a 4% acrylamide DNA-retardation gel, dried and exposed to X-ray film in the presence of intensifying screen.\nAlthough the effects of ARC were p53-independent, ARC did affect some properties of p53. […] This is in contrast to actinomycin D, which is known to enhance the DNA binding ability of p53 [22]. […] To determine if ARC retains p53 in the cytoplasm, which may lead to decreased binding in the gel shift assays, p53 levels in nuclear lysates were examined."}},
  "note": "Like-named read-outs stand apart in the source and are kept apart here. Starred links: 1 amine or outer side, 2 acyl side, 3 side chain; linkers in the order of their positions; H or OH if unused. Positions of bridges follow the written chain, without caps; N, C: chain ends. Non-standard residues stand in square brackets, D forms with d. Residues, ends and D or L forms follow the SMILES beside them. Chains are numbered I, II in the order given. Actinocin(9to1) = Cc1c2oc3c(C)ccc(C(=O)[*:1])c3nc-2c(C(=O)[*:2])c(N)c1=O; NMeV = CN[C@H](C(=O)O)C(C)C; Sar = CNCC(=O)O",
  "data": [
    {"smiles": "OC[C@H]1O[C@@H](n2cnc3cc(Cl)c(Cl)cc32)[C@H](O)[C@@H]1O", "note": "[DRB, 5,6-Dichloro-1-β-ribofuranosylbenzimidazole, reference compound]", "values": [
      {"measurement": "rate of transcription versus control nuclei", "setting": "[1]", "result": "lower"},
      {"measurement": "rate of transcription, agent added to isolated nuclei", "setting": "RNA polymerase II", "result": "did not affect the rate of transcription"},
      {"measurement": "apoptosis (PI staining, flow cytometry)", "setting": "[2]", "result": 23.4, "unit": "%"}
    ]},
    {"smiles": "CO[C@@H]1[C@H](OC(=O)NC(=O)CCl)CC[C@]2(CO2)[C@H]1[C@@]1(C)O[C@@H]1CC=C(C)C", "note": "[TNP-470]", "values": [
      {"measurement": "IC50", "setting": "HUVECs [3]", "result": "~0.7", "unit": "µM"},
      {"measurement": "IC50", "setting": "HUVECs [4]", "result": "~0.6", "unit": "µM"}
    ]},
    {"smiles": "CC[C@H](C)[C@@H]1NC(=O)CNC(=O)[C@@H]2Cc3c([nH]c4cc(O)ccc34)[S+]([O-])C[C@@H](NC(=O)CNC1=O)C(=O)N[C@@H](CC(N)=O)C(=O)N1C[C@H](O)C[C@H]1C(=O)N[C@@H]([C@@H](C)[C@@H](O)CO)C(=O)N2", "note": "(stereo in doubt) [α-amanitin]", "values": [
      {"measurement": "rate of transcription, agent added to isolated nuclei", "setting": "RNA polymerase II", "result": "dramatically inhibited transcription"}
    ]},
    {"smiles": "Cc1c2oc3c(C)ccc(C(=O)N[C@@H]4C(=O)N[C@H](C(C)C)C(=O)N5CCC[C@H]5C(=O)N(C)CC(=O)N(C)[C@@H](C(C)C)C(=O)O[C@@H]4C)c3nc-2c(C(=O)N[C@@H]2C(=O)N[C@H](C(C)C)C(=O)N3CCC[C@H]3C(=O)N(C)CC(=O)N(C)[C@@H](C(C)C)C(=O)O[C@@H]2C)c(N)c1=O", "note": "[actinomycin D, reference compound] (I: T[dV]P[Sar][NMeV] / II: T[dV]P[Sar][NMeV]; ester I:1-I:C, II:1-II:C; linker I:N-II:N via Actinocin(9to1))", "values": [
      {"measurement": "DNA binding ability of p53, agent alone", "setting": "p53", "result": "increased the DNA binding ability of p53"}
    ]}
  ]
}
